Legend:
human DGKα = human DGKα (Homo sapiens, UniProt P23743); assay: DGKα Biochemical Activity Assay (ADP-Glo); conditions: recombinant DGKα 1 nM, 100 μM ATP, 18:1 DAG/POPS/octylglucoside micelles, 1 hour at 25° C.; geometric mean; read-out: HTBS DGKa 1X ATP KM IC50;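 also: luminescent detection of ADP produced as DGKα phosphorylates DAG to phosphatidic acid, IC50 from four-parameter nonlinear curve fit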
Description: Alternatively, the enzymatic activity of human DGKα was monitored in a biochemical assay in the presence or absence of compounds and using micelles containing 18:1 Diacylglycerol (DAG), 16:0-18:1 PS (POPS) and Octylglucoside as substrate. DGKα activity led to conversion of DAG and ATP to Phosphatidic Acid (PA) and ADP. Levels of ADP were monitored by bioluminescence using the ADP-Glo Kinase Assay (Promega) and were indicative of DGKα activity.
Recombinant DGKα (Carna Biosciences) in assay buffer (5 μL in 50 mM MOPS [3-(N-morpholino) propanesulfonic acid], pH 7.2; 0.0025% Triton X-100; 1 mM dithiothreitol; 5 mM MgCl2, 200 μM ATP) was added to the compound-containing plate and was incubated for 15 minutes at 25° C. […] The reaction mixture was incubated at 25° C. for 1 hour. ADP-Glo Reagent (10 μL, 10 mM Mg added) provided by the kit was added to each well and incubated at 25° C. for 40 minutes. Then, 20 μL of Kinase Detection Reagent was added and incubated at 25° C. for 40 minutes. Luciferase activity of each well was measured via luminescence on an Envision plate reader (PerkinElmer).
Least squares curve fittings were performed using a four-parameter variable slope nonlinear regression model. […] IC50 values from multiple experiments were averaged by geometric mean and the standard deviation was calculated.

[1] = system: Jurkat NFκB-luciferase cells; assay: Jurkat NFκB-Luciferase Assay; type: cell-based; conditions: Homo sapiens; Jurkat NFκB-luciferase cells activated with anti-CD3 antibody (OKT3), 2.5 hrs at 37° C.; geometric mean; read-out: DGK NFKb Luciferase EC50
In short: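 Jurkat NFκB-luciferase reporter cells at 1 million cells/ml in RPMI with 10% FBS were added to antibody-coated, compound-containing wells. Luciferase activity read by One-Glo Ex luminescence 7 minutes after reagent addition.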

Sequence of human DGKα (P23743 whole entry): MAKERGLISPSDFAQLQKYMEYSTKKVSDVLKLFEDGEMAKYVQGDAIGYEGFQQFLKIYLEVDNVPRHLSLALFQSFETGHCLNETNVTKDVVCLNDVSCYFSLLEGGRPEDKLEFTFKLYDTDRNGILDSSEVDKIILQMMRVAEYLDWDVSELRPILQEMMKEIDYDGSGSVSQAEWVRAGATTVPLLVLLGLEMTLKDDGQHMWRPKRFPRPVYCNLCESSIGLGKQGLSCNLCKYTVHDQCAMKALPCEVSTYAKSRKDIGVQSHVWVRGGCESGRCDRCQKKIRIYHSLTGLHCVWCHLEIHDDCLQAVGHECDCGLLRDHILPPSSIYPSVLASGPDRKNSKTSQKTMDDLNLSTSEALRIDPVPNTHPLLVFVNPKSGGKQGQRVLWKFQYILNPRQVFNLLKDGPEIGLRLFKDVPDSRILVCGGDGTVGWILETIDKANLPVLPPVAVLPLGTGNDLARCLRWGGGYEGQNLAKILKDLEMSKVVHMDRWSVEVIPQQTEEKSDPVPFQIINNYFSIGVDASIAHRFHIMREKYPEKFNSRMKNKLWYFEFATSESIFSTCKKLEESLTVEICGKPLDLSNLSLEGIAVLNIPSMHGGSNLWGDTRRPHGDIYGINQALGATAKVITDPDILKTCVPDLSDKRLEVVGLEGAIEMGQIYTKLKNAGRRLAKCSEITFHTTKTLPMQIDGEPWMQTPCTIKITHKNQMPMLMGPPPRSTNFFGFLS

Row | IC50 (human DGKα) [nM] | EC50 [1] [nM] | SMILES
1 | 61.3 | 10.8 | Cc1nnc2nc(N3CCCc4c(C#CC(C)(C)C(=O)O)cccc43)c3c(F)cccc3n12 [Example 73, 4-(1-(6-fluoro-1-methyl-[1,2,4]triazolo[4,3-a]quinazolin-5-yl)-1,2,3,4-tetrahydroquinolin-5-yl)-2,2-dimethylbut-3-ynoic Acid]
2 | 28.9 | 3.41 | COc1ccc(C#Cc2nccc3c2CCCN3c2nc3nnc(C)n3c3cccc(F)c23)cn1 [Example 75, 6-fluoro-5-(5-((6-methoxypyridin-3-yl)ethynyl)-3,4-dihydro-1,6-naphthyridin-1(2H)-yl)-1-methyl-[1,2,4]triazolo[4,3-a]quinazoline]
3 | 13.4 | 8.01 | Cc1nccn1C(C)(C)C#Cc1cccc2c1CCCN2c1nc2nnc(C)n2c2cccc(F)c12 [Example 76, 6-fluoro-1-methyl-5-(5-(3-methyl-3-(2-methyl-1H-imidazol-1-yl)but-1-yn-1-yl)-3,4-dihydroquinolin-1(2H)-yl)-[1,2,4]triazolo[4,3-a]quinazoline]
4 | 15.5 | 1.94 | Cc1nc(C(C)(C)C#Cc2cccc3c2CCCN3c2nc3nnc(C)n3c3cccc(F)c23)oc1C [Example 77, 2-(4-(1-(6-fluoro-1-methyl-[1,2,4]triazolo[4,3-a]quinazolin-5-yl)-1,2,3,4-tetrahydroquinolin-5-yl)-2-methylbut-3-yn-2-yl)-4,5-dimethyloxazole]
5 | 41.2 | 7.73 | Cc1nnc2nc(N3CCCc4c(C#CC(C)(C)n5ccnc5)cccc43)c3c(F)cccc3n12 [Example 78, 5-(5-(3-(1H-imidazol-1-yl)-3-methylbut-1-yn-1-yl)-3,4-dihydroquinolin-1(2H)-yl)-6-fluoro-1-methyl-[1,2,4]triazolo[4,3-a]quinazoline]
6 | 22.6 | 2.54 | Cc1nnc2nc(N3CCCc4c(C#CC(C)(C)c5ncco5)cccc43)c3c(F)cccc3n12 [Example 79, 2-(4-(1-(6-fluoro-1-methyl-[1,2,4]triazolo[4,3-a]quinazolin-5-yl)-1,2,3,4-tetrahydroquinolin-5-yl)-2-methylbut-3-yn-2-yl)oxazole]
7 | 8.49 | 1.21 | Cc1nnc2nc(N3CCCc4c(C#CC5(C)CC5)cncc43)c3c(F)c(F)ccc3n12 [Example 83, 6,7-difluoro-1-methyl-5-(5-((1-methylcyclopropyl)ethynyl)-3,4-dihydro-1,7-naphthyridin-1(2H)-yl)-[1,2,4]triazolo[4,3-a]quinazoline]
8 | 7.21 | 2.24 | Cc1nnc2nc(N3CCCc4c3ccnc4C#CC3(C)CC3)c3c(F)c(F)ccc3n12 [Example 85, 6,7-difluoro-1-methyl-5-(5-((1-methylcyclopropyl)ethynyl)-3,4-dihydro-1,6-naphthyridin-1(2H)-yl)-[1,2,4]triazolo[4,3-a]quinazoline]
9 | 10.6 | 1.14 | Cc1nnc2nc(N3CCCc4c(C#CC5(C(F)(F)F)CC5)cncc43)c3c(F)c(F)ccc3n12 [Example 88, 6,7-difluoro-1-methyl-5-(5-((1-(trifluoromethyl)cyclopropyl)ethynyl)-3,4-dihydro-1,7-naphthyridin-1(2H)-yl)-[1,2,4]triazolo[4,3-a]quinazoline]
10 | 29.3 | 1.88 | Cc1nnc2nc(N3CCCc4c(C#CC(C)(C)C(F)(F)F)cncc43)c3c(F)c(F)ccc3n12 [Example 90, 6,7-difluoro-1-methyl-5-(5-(4,4,4-trifluoro-3,3-dimethylbut-1-yn-1-yl)-3,4-dihydro-1,7-naphthyridin-1(2H)-yl)-[1,2,4]triazolo[4,3-a]quinazoline]
11 | 3.43 | 3.83 | Cc1nnc2nc(N(CC(F)F)c3ccnc(C#CC4(C)CC4)c3)c3c(F)c(F)ccc3n12 [Example 91, N-(2,2-difluoroethyl)-6,7-difluoro-1-methyl-N-(2-((1-methylcyclopropyl)ethynyl)pyridin-4-yl)-[1,2,4]triazolo[4,3-a]quinazolin-5-amine]
12 | 13.8 | 5.3 | Cc1nnc2nc(N(CC(F)F)c3ccnc(C#CC4(C(F)(F)F)CC4)c3)c3c(F)c(F)ccc3n12 [Example 92, N-(2,2-difluoroethyl)-6,7-difluoro-1-methyl-N-(2-((1-(trifluoromethyl)cyclopropyl)ethynyl)pyridin-4-yl)-[1,2,4]triazolo[4,3-a]quinazolin-5-amine]
13 | 6.22 | 5.1 | Cc1nnc2nc(N(CC(F)F)c3ccnc(C#CC4(C)CC4)c3)c3cc(F)ccc3n12 [Example 96, N-(2,2-difluoroethyl)-7-fluoro-1-methyl-N-(2-((1-methylcyclopropyl)ethynyl)pyridin-4-yl)-[1,2,4]triazolo[4,3-a]quinazolin-5-amine]
14 | 7.4 | 0.483 | CC1(C#Cc2cncc3c2CCCN3c2nc3nncn3c3ccc(F)c(F)c23)CC1 [Example 99, 6,7-difluoro-5-(5-((1-methylcyclopropyl)ethynyl)-3,4-dihydro-1,7-naphthyridin-1(2H)-yl)-[1,2,4]triazolo[4,3-a]quinazoline]
15 | 6.22 | 0.122 | CC(C)(C#Cc1cncc2c1CCCN2c1nc2nncn2c2ccc(F)c(F)c12)C(F)(F)F [Example 100, 6,7-difluoro-5-(5-(4,4,4-trifluoro-3,3-dimethylbut-1-yn-1-yl)-3,4-dihydro-1,7-naphthyridin-1(2H)-yl)-[1,2,4]triazolo[4,3-a]quinazoline]

The remaining lines, values behind:

Row | SMILES | IC50 (human DGKα) [nM] | EC50 [1] [nM]
16 | COc1ccc(C#Cc2cc(N(CC(F)F)c3nc4nnc(C)n4c4cccc(F)c34)ccn2)cn1 [Example 74, N-(2,2-difluoroethyl)-6-fluoro-N-(2-((6-methoxypyridin-3-yl)ethynyl)pyridin-4-yl)-1-methyl-[1,2,4]triazolo[4,3-a]quinazolin-5-amine] | 6.1 | 1.95
17 | Cc1nnc2nc(N(CC(F)F)c3ccnc(C#CC(C)(C)C(F)(F)F)c3F)c3c(F)c(F)ccc3n12 [Example 80, N-(2,2-difluoroethyl)-6,7-difluoro-N-(3-fluoro-2-(4,4,4-trifluoro-3,3-dimethylbut-1-yn-1-yl)pyridin-4-yl)-1-methyl-[1,2,4]triazolo[4,3-a]quinazolin-5-amine] | 15.1 | 2.15
18 | Cc1nnc2nc(N(CC(F)F)c3ccnc(C#CC4CC4)c3)c3c(F)c(F)ccc3n12 [Example 81, N-(2-(cyclopropylethynyl)pyridin-4-yl)-N-(2,2-difluoroethyl)-6,7-difluoro-1-methyl-[1,2,4]triazolo[4,3-a]quinazolin-5-amine] | 10.4 | 30.7
19 | Cc1nnc2nc(N(CC(F)F)c3ccnc(C#CC4CC4)c3)c3c(F)cccc3n12 [Example 82, N-(2-(cyclopropylethynyl)pyridin-4-yl)-N-(2,2-difluoroethyl)-6-fluoro-1-methyl-[1,2,4]triazolo[4,3-a]quinazolin-5-amine] | 11.4 | 10.5
20 | Cc1nnc2nc(N(CC(F)F)c3ccnc(C#CC(C)(C)C(F)(F)F)c3)c3c(F)c(F)ccc3n12 [Example 84, N-(2,2-difluoroethyl)-6,7-difluoro-1-methyl-N-(2-(4,4,4-trifluoro-3,3-dimethylbut-1-yn-1-yl)pyridin-4-yl)-[1,2,4]triazolo[4,3-a]quinazolin-5-amine] | 5.06 | 2.44
21 | Cc1nnc2nc(N(CC(F)F)c3ccnc(C#CC4CC4)c3)c3cc(F)ccc3n12 [Example 87, N-(2-(cyclopropylethynyl)pyridin-4-yl)-N-(2,2-difluoroethyl)-7-fluoro-1-methyl-[1,2,4]triazolo[4,3-a]quinazolin-5-amine] | 3.5 | 7.57
22 | Cc1nnc2nc(N(CC(F)F)c3ccnc(C#CC4(C(F)(F)F)CC4)c3F)c3cc(F)ccc3n12 [Example 89] | 5.41 | 4.61
23 | CC(C)(C#Cc1cc(N(CC(F)F)c2nc3nncn3c3ccc(F)c(F)c23)ccn1)C(F)(F)F [Example 93, N-(2,2-difluoroethyl)-6,7-difluoro-N-(2-(4,4,4-trifluoro-3,3-dimethylbut-1-yn-1-yl)pyridin-4-yl)-[1,2,4]triazolo[4,3-a]quinazolin-5-amine] | 8.14 | 2.63
24 | CC1(C#Cc2cc(N(CC(F)F)c3nc4nncn4c4ccc(F)c(F)c34)ccn2)CC1 [Example 94, N-(2,2-difluoroethyl)-6,7-difluoro-N-(2-((1-methylcyclopropyl)ethynyl)pyridin-4-yl)-[1,2,4]triazolo[4,3-a]quinazolin-5-amine] | 4.3 | 2.33
25 | Fc1ccc2c(c(N(CC(F)F)c3ccnc(C#CC4(C(F)(F)F)CC4)c3)nc3nncn32)c1F [Example 95, N-(2,2-difluoroethyl)-6,7-difluoro-N-(2-((1-(trifluoromethyl)cyclopropyl)ethynyl)pyridin-4-yl)-[1,2,4]triazolo[4,3-a]quinazolin-5-amine] | 7.69 | 2.77
26 | CC(C)(C#Cc1nccc(N(CC(F)F)c2nc3nncn3c3ccc(F)cc23)c1F)C(F)(F)F [Example 97, N-(2,2-difluoroethyl)-7-fluoro-N-(3-fluoro-2-(4,4,4-trifluoro-3,3-dimethylbut-1-yn-1-yl)pyridin-4-yl)-[1,2,4]triazolo[4,3-a]quinazolin-5-amine] | 18 | 3.9
27 | COCCN(c1cc(F)cc(C#CC2(C(F)(F)F)CC2)c1)c1nc2nncn2c2cccc(F)c12 [Example 98, 6-fluoro-N-(3-fluoro-5-((1-(trifluoromethyl)cyclopropyl)ethynyl)phenyl)-N-(2-methoxyethyl)-[1,2,4]triazolo[4,3-a]quinazolin-5-amine] | 84.7 | 18.8
28 | CC(C)(C)C#Cc1cc(N(CC(F)F)c2nc3nncn3c3ccc(F)cc23)ccn1 [Example 101, N-(2,2-difluoroethyl)-N-(2-(3,3-dimethylbut-1-yn-1-yl)pyridin-4-yl)-7-fluoro-[1,2,4]triazolo[4,3-a]quinazolin-5-amine] | 5.56 | 4.69
